Test [1] concerns the target T1, human recombinant α1b adrenoceptor (Homo sapiens, UniProt P35368).
T1 construct: expressed in transfected cells; host or cells: CHO cells (membranes)
T1 sequence (P35368 1-520): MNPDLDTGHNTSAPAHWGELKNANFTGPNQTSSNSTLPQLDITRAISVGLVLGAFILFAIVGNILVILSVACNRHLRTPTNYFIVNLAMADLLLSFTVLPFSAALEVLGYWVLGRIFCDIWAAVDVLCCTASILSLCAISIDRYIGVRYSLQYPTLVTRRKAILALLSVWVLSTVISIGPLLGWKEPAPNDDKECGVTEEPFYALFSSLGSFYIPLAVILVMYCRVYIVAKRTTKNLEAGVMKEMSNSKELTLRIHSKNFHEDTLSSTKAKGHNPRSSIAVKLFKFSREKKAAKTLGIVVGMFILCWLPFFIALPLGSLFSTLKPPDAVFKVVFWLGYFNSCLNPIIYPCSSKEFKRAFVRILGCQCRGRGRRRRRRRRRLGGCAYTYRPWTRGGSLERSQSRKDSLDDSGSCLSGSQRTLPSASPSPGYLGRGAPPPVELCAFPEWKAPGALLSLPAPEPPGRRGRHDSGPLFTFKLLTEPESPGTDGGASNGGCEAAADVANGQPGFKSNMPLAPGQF
Put plainly: Radioligand binding ([3H]prazosin) on membranes of CHO cells expressing cloned α1b adrenoceptor. The following applies: human cloned receptor, CHO cell membranes, 0.2 nM [3H]prazosin; read-out: Affinity (Ki) α1b. On the procedure:
(§1) The determination of affinity for cloned subtypes of human α1 adrenergic receptors was performed in membranes from CHO cells (chinese hamster ovary cells) transfected by electroporation with DNA expressing the genes encoding each α1-adrenoceptor subtype, namely α1a, α1b and α1d.. Cloning and stable expression of the human α1-adrenoceptor gene were performed as previously described (Testa et al., Pharmacol. Comm. 6, 79-86 (1995)). CHO cell membranes were incubated in […] Tris pH 7.4 with 0.2 nM [^3H]prazosin, in a final volume of 1.02 ml for 30 minutes at 25°C, in the absence or presence of competing drugs (1 pM-10 µM). Non-specific binding was determined in the presence of 10 µM phentolamine. Incubation was stopped by addition of ice-cold Tris buffer and rapid filtration through 0.2% polyethyleneimine pretreated Schleicher & Schuell GF52 filters. Genomic clone G-21 coding for the human 5-HT1A-serotoninergic receptor was stably transfected in a human cell line (HeLa) (Fargin et al., J. Biol. Chem. 284, 14848-14852 (1989)). The HeLa cells were grown as monolayers in Dulbecco's modified Eagle's medium (DMEM), supplemented with 10% foetal calf serum and gentamicin (100 µg/ml), 5% CO2, at 37°C. The cells were detached from the growth flask at 95% confluence by a cell scraper and were lysed in ice-cold 5 mM Tris and 5-mM EDTA buffer (pH 7.4). The homogenates were centrifuged at 40000 x g x 20 minutes and the membranes were re-suspended in a small volume of ice-cold 5 mM Tris and 5-mM EDTA buffer (pH 7.4) and immediately frozen and stored at -70°C until use. On the experiment day, the cell membranes were re-suspended in a buffer containing 50 mM Tris (pH 7.4), 2.5 mM MgCl2, 10 µM pargyline (Fargin et al., Nature 335, 358-360 (1988)). […] The incubation was stopped by addition of ice-cold Tris buffer and rapid filtration through 0.2%-polyethyleneimine-pretreated Schleicher & Schuell filters. The inhibition of specific binding of the radioligands by the drugs was analysed to estimate the IC50 value by using the non-linear curve-fitting programme Allfit (De Lean et al., Am. J. Physiol. 235, E97-E102 (1978)). The IC50 value was converted to an affinity constant (Ki) by the equation of Cheng & Prusoff (Biochem. Pharmacol. 22, 3099-3108 (1973)). Data were expressed as mean of Ki.

The target of test [2] is T2, human 5-HT1A-serotoninergic receptor (Homo sapiens, UniProt P08908).
T2 construct: expressed in transfected cells; host or cells: HeLa cells (membranes)
T2 sequence (P08908 1-422): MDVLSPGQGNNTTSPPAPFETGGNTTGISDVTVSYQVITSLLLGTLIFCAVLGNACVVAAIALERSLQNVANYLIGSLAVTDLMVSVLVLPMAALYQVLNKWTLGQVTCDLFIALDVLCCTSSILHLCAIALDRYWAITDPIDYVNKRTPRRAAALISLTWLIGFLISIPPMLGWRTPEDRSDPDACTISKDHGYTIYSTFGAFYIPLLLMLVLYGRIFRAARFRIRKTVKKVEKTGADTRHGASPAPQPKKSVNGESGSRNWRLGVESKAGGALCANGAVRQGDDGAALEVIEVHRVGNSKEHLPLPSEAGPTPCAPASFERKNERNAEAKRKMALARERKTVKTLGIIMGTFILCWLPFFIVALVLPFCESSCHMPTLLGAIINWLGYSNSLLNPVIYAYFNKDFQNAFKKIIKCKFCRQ
In words: Radioligand binding ([3H]8-OH-DPAT) on membranes of HeLa cells expressing cloned 5-HT1A receptor. To be noted: human cloned receptor, HeLa cell membranes, 1.2 nM [3H]8-OH-DPAT; read-out: Affinity (Ki) 5-HT1A. Here is the method:
as §1

Another test has as its target T3, Guinea pig spleen α1B (Cavia porcellus, UniProt H0WBQ9).
T3 construct: from tissue; host or cells: guinea pig spleen, longitudinal strips
T3 sequence (H0WBQ9 1-520): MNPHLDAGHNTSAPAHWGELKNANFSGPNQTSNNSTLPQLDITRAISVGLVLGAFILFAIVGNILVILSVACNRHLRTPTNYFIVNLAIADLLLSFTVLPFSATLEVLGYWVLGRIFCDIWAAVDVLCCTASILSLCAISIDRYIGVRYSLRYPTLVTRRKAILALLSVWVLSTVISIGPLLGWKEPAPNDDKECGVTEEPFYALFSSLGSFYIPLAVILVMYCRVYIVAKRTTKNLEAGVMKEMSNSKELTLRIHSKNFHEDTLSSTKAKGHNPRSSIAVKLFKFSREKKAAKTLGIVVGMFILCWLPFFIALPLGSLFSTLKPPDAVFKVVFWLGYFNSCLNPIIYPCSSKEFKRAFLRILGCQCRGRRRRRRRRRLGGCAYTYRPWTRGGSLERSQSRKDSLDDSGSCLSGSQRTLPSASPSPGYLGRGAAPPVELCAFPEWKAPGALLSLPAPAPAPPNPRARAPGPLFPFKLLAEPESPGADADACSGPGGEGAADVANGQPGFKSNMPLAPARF
To be noted: footnote a: Eltze M., Eur. J. Pharmacol. 260, 211-220 (1994); cited from earlier work.

The text below walks through data of EP1200406B1, “CYCLIC AMIDES AND IMIDES HAVING SELECTIVE ANTAGONIST ACTIVITY AT ALPHA-1D ADRENERGIC RECEPTOR” (RECORDATI INDUSTRIA CHIMICA E FARMACEUTICA S.p.a., priority 1999, dated 2001).

Regarding `COc1ccccc1N1CCN(CCN2C(=O)CC3(CCCC3)CC2=O)CC1` [BMY-7378, reference compound], the values for the Ki in test [1] and in test [2] were 69 nM and 0.93 nM, respectively. Further, the “Functional affinity pKB, Guinea pig spleen α1B” value on Guinea pig spleen α1B is reported as 6.55^a.
